{
  "source": "patent US20250312416A1",
  "about": "“METHOD AND PHARMACEUTICAL COMPOSITION FOR CARTILAGE REGENERATION” (FAR EASTERN MEMORIAL HOSPITAL, priority 2024, published 2025)",
  "tested_on": "ADSC spheroids",
  "assay": "Immunofluorescence / confocal microscopy of chondrogenic proteins in ADSC spheroids",
  "assay_type": "cell-based, human",
  "details": "3D ADSC spheroids, by day 7",
  "experimental": "Both side views (observed in the x and z plane) and bottom views (observed in the […]) of the images are provided. The scale bar is set at 500 μm.\nADSCs were treated with CXCL14-P, CXCL14-P1, or CXCL14-P2, respectively, at a concentration of 10 ng for 24 hours, after which the medium was replaced with fresh peptide-free medium. On day 7, total RNA was extracted, and real-time PCR analysis was performed to assess the expression levels of key chondrogenic markers, including ACAN, COL2A1, SOX9, and COMP. Gene expression levels were quantified using a LightCycler system (Roche Applied Science), with fold changes calculated relative to untreated control ADSCs. […] Immunofluorescence staining was performed to detect Collagen Type II, SOX9, COMP, and nuclei (Hoechst 33342) in 3D ADSC spheroids (middle panel).\n(FIG. 3). […] Moreover, fluorescence confocal microscopy was employed to detect protein patterns and confirm the levels of SOX9, type II collagen, and aggrecan proteins in ADSC spheroids. […] Finally, to investigate whether the CXCR4 receptor of CXCL12/CXCL14 confers chondrogenic signaling during chondrogenesis, we treated ADSCs with a CXCR4 agonist for 7 days.\nExtracellular vesicles (EVs) derived from MSCs hold significant potential for repairing damaged tissues. In this study, we explored whether EVs from ADSCs could effectively enhance chondrogenesis and promote cartilage repair. Immunofluorescence staining was used to assess protein levels of Collagen Type II (green), SOX9 (red), COMP (indigo), and Hoechst 33342 (gray) in 3D ADSC spheroids treated with MSC-EVs derived from CXCL14 peptide-primed ADSCs (CXCL14-P-MSC-EVs) at various time points. […] To further explore the cartilage repair functions of EVs from CXCL14-P-treated ADSCs and the encapsulation of the transcription factor SOX9 within MSCs and purified EVs, we performed in vivo studies.",
  "data": [
    {"sequence": "ITTKSVSRYRGQEH [CXCL14-P]", "values": [
      {"measurement": "Collagen Type II, SOX9, and COMP expression", "value": "increase"}
    ]}
  ]
}
